Results taken from paper PMC11212140, “Molecular Bidents with Two Electrophilic Warheads as a New Pharmacological Modality” (ACS Central Science, 2024).

Experiments:
[1] = test system: T1, PHKg2; assay: KiNativ profiling in H3255 cells; format: cell-based, human; conditions: 2.5 µM; Lys1; ATGHEFAVKIMEVTAER
T1 construct: purchased ActivX Biosciences (KiNativ)
Procedure: (§1) H3255 cells were plated with 6.5x10^6 per condition in fresh media in 15 cm plates and treated the 80% confluency for 2 hours with DMSO or 2.5 μM of ZNL-0056. To harvest cells, plates were washed 3 times with cold PBS, then collected by scraping into 4 mL of cold PBS containing protease and phosphatase inhibitors. Cells were pelleted by centrifugation at 1350 g at 4 ℃ for 5 minutes and immediately frozen in liquid nitrogen. The frozen samples were sent to ActivX Biosciences (La Jolla, CA) for the remainder of the KiNativ profiling experiment4. […]

[2] = test system: MAP2K1, MAP2K2; assay: KiNativ profiling in H3255 cells; format: cell-based, human; conditions: 2.5 µM
Procedure: as §1

[3] = test system: T2, LOK; assay: KiNativ profiling in H3255 cells; format: cell-based, human; conditions: 2.5 µM; Lys2; DLKAGNVLMTLEGDIR
T2 construct: purchased ActivX Biosciences (KiNativ)
Procedure: as §1

[4] = test system: ABL, ARG; assay: KiNativ profiling in H3255 cells; format: cell-based, human; conditions: 2.5 µM
Procedure: as §1

[5] = test system: T3, CaMK2g; assay: KiNativ profiling in H3255 cells; format: cell-based, human; conditions: 2.5 µM; Lys1; TSTQEYAAKIINTK
T3 construct: purchased ActivX Biosciences (KiNativ)
Procedure: as §1

[6] = test system: T4, PEK; assay: KiNativ profiling in H3255 cells; format: cell-based, human; conditions: 2.5 µM; Lys2; DLKPSNIFFTMDDVVK
T4 construct: purchased ActivX Biosciences (KiNativ)
Procedure: as §1

[7] = test system: T5, MLKL; assay: KiNativ profiling in H3255 cells; format: cell-based, human; conditions: 2.5 µM; Lys1; APVAIKVFK
T5 construct: purchased ActivX Biosciences (KiNativ)
Procedure: as §1

[8] = test system: T6, eEF2K; assay: KiNativ profiling in H3255 cells; format: cell-based, human; conditions: 2.5 µM; ATP; YIKYNSNSGFVR
T6 construct: purchased ActivX Biosciences (KiNativ)
Procedure: as §1

[9] = test system: T7, EphA1; assay: KiNativ profiling in H3255 cells; format: cell-based, human; conditions: 2.5 µM; Activation Loop; LLDDFDGTYETQGGKIPIR
T7 construct: purchased ActivX Biosciences (KiNativ)
Procedure: as §1

[10] = test system: T8, HRI; assay: KiNativ profiling in H3255 cells; format: cell-based, human; conditions: 2.5 µM; Activation Loop; IGDFGLACTDILQKNTDWTNR
T8 construct: purchased ActivX Biosciences (KiNativ)
Procedure: as §1

[11] = test system: T9, PIK3C2B; assay: KiNativ profiling in H3255 cells; format: cell-based, human; conditions: 2.5 µM; ATP; VIFKCGDDLRQDMLTLQMIR
T9 construct: purchased ActivX Biosciences (KiNativ)
Procedure: as §1

[12] = test system: T10, TLK2; assay: KiNativ profiling in H3255 cells; format: cell-based, human; conditions: 2.5 µM
T10 construct: purchased ActivX Biosciences (KiNativ)
Procedure: as §1

[13] = test system: Wnk1, Wnk2, Wnk3; assay: KiNativ profiling in H3255 cells; format: cell-based, human; conditions: 2.5 µM; Lys2; DLKCDNIFITGPTGSVK
Procedure: as §1

[14] = test system: T11, RON; assay: KiNativ profiling in H3255 cells; format: cell-based, human; conditions: 2.5 µM; Lys1; IQCAIKSLSR
T11 construct: purchased ActivX Biosciences (KiNativ)
Procedure: as §1

[15] = test system: T12, p70S6K; assay: KiNativ profiling in H3255 cells; format: cell-based, human; conditions: 2.5 µM
T12 construct: purchased ActivX Biosciences (KiNativ)
Procedure: as §1

[16] = test system: T13, EphB2; assay: KiNativ profiling in H3255 cells; format: cell-based, human; conditions: 2.5 µM; Activation Loop; FLEDDTSDPTYTSALGGKIPIR
T13 construct: purchased ActivX Biosciences (KiNativ)
Procedure: as §1

[17] = test system: T14, HER3/ErbB3; assay: KiNativ profiling in H3255 cells; format: cell-based, human; conditions: 2.5 µM
T14 construct: purchased ActivX Biosciences (KiNativ)
Procedure: as §1

[18] = test system: FGFR1, FMS, PDGFRb, TYRO3; assay: KiNativ profiling in H3255 cells; format: cell-based, human; conditions: 2.5 µM; Lys1; VAVKMLK
Procedure: as §1
(§2) Human EGFR kinase domain (residues 696-1022) with T790M and V948R mutations was cloned with an N-terminal, protease cleavable His -GST tag. Recombinant protein was expressed in SF9 insect cells using baculovirus generated from the pFastBac system (Thermo Fisher) .
(§3) Briefly, cells at a density of ~2x10^6 cells/mL were infected with 1% (v/v) virus stock and grown for ~72 hours before harvesting and freezing the cell pellet . Infected cells were lysed in buffer A (50 mM Tris pH 8.0, 500 mM NaCl, 5% glycerol, 0.5 mM Tris(2-carboxyethyl)phosphine [TCEP]), ultracentrifuged at >200,000 rcf for 1 h, and the supernatant flo wed through Ni-NTA resin by gravity. The resin was washed with buffer A supplemented with 40 mM imidazole by […]

[19] = test system: T15, MET; assay: KiNativ profiling in H3255 cells; format: cell-based, human; conditions: 2.5 µM; Activation Loop; DMYDKEYYSVHNK
T15 construct: purchased ActivX Biosciences (KiNativ)
Procedure: as §1, §2, §3

[20] = test system: T16, CDK2; assay: KiNativ profiling in H3255 cells; format: cell-based, human; conditions: 2.5 µM
T16 construct: purchased ActivX Biosciences (KiNativ)
Procedure: as §1, §2, §3

[21] = test system: T17, DNAPK; assay: KiNativ profiling in H3255 cells; format: cell-based, human; conditions: 2.5 µM, ATP
T17 construct: purchased ActivX Biosciences (KiNativ)
Procedure: (§4) Cellular target engagement assays […]
as §1

[22] = test system: T18, NuaK2; assay: KiNativ profiling in H3255 cells; format: cell-based, human; conditions: 2.5 µM; Lys1; LVAIKSIR
T18 construct: purchased ActivX Biosciences (KiNativ)
Procedure: as §4, §1

[23] = test system: MSK1 domain1, MSK2 domain1; assay: KiNativ profiling in H3255 cells; format: cell-based, human; conditions: 2.5 µM; ATP Loop; VLGTGAYGKVFLVR
Procedure: as §4, §1

[24] = test system: T19, PCTAIRE1; assay: KiNativ profiling in H3255 cells; format: cell-based, human; conditions: 2.5 µM; Lys1; SKLTDNLVALKEIR
T19 construct: purchased ActivX Biosciences (KiNativ)
Procedure: as §4, §1

[25] = test system: T20, RSK1 domain1; assay: KiNativ profiling in H3255 cells; format: cell-based, human; conditions: 2.5 µM
T20 construct: RSK1 domain1; purchased ActivX Biosciences (KiNativ)
Procedure: as §4, §1

[26] = test system: T21, MARK3; assay: KiNativ profiling in H3255 cells; format: cell-based, human; conditions: 2.5 µM; Lys1; EVAIKIIDKTQLNPTSLQK
T21 construct: purchased ActivX Biosciences (KiNativ)
Procedure: as §4, §1

[27] = Glutathione (GSH) reactivity; format: in vitro ADME; conditions: glutathione (GSH) in buffer; read-out: half-life of conjugation with glutathione (GSH)
Procedure: Table S3. Glutathione (GSH) reactivity of ZNL-0056
*NGSH1440: the abbreviation of no glutathione. No glutathione is added into NGSH sample
(replaced by buffer) during the 24 hour-incubation R2 is the correlation coefficient of the linear
regression for the determination of kinetic constant.
(1 picture or pasted object on this page, not shown here)

[28] = Activation Loop, LMTGDTYTAHAGAKFPIK
[29] = Lys2, YLNEIKPPIIHYDLKPGNILLVNGTACGEIK
[30] = Activation Loop, SPSQVQVADFGVADLLPPDDKQLLYSEAKTPIK
[31] = Activation Loop, LTDFGLSKEAIDHEKK

| SMILES | Inhibition [1] | Inhibition ([2]; Lys1, KLIHLEIKPAIR) | Inhibition ([2]; Lys2, DVKPSNILVNSR) | Inhibition [3] | Inhibition [4, 28] | Inhibition ([4]; Lys1, YSLTVAVKTLKEDTMEVEEFLK) | Inhibition [5] | Inhibition [6] | Inhibition [7] | Inhibition [8] | Inhibition [9] | Inhibition [10] | Inhibition [11] | Inhibition ([12]; Lys1, YVAVKIHQLNK) | Inhibition [12, 29] | Inhibition [13] | Inhibition [14] | Inhibition ([15]; Lys1, IFAMKVLK) | Inhibition ([15]; Lys2, DLKPENIMLNHQGHVK) | Inhibition [16] | other results |
| --- | --- | --- | --- | --- | --- | --- | --- | --- | --- | --- | --- | --- | --- | --- | --- | --- | --- | --- | --- | --- | --- |
| C=CC(=O)Nc1cc(C(=O)Nc2nc3cccc(C)c3n2[C@@H]2CCCCN(C(=O)C=C)C2)cs1 [ZNL-0056] | -4.2% | 9.8% | -6.7% | -15.4% | -3.8% | 17.1% | -27.3% | -15.1% | 4.5% | -31.5% | -5.3% | 6.7% | -9.6% | 15.3% | 18.3% | -34.6% | -9.0% | 23.2% | -10.8% | -8.5% | Inhibition [17, 30]: 25.6%; Inhibition ([17]; Lys1, GVWIPEGESIKIPVCIKVIEDK): -12.4%; Inhibition [18]: -17.7%; Inhibition [19]: -17.6%; Inhibition ([20]; Lys1, LTGEVVALKK): 0.6%; Inhibition ([20]; Lys2, DLKPQNLLINTEGAIK): 13.1%; Inhibition ([21]; EHPFLVKGGEDLR): 26.5%; Inhibition ([21]; KGGSWIQEINVAEK): -18.3%; Inhibition [22]: 1.9%; Inhibition [23]: 15.3%; Inhibition [24]: -1.5%; Inhibition [25, 31]: 5.8%; Inhibition ([25]; Lys1, KVTRPDSGHLYAMKVLK): -35.1%; Inhibition [26]: 17.8%; half-life [27]: 36 min |
| C=CC(=O)Nc1cc(Nc2nccc(-c3cn(C)c4ccccc34)n2)c(OC)cc1N(C)CCN(C)C [Osimertinib, osimertinib, reference compound] | -24.7% | -64.7% | -10.5% | -8.3% | 8.4% | 4.3% | -34.8% | 7.8% | -10.0% | -9.7% | 5.8% | -4.0% | 1.3% | 25.0% | 3.9% | 11.9% | 8.9% | -2.7% | -39.3% | 1.1% | Inhibition [17, 30]: -24.2%; Inhibition ([17]; Lys1, GVWIPEGESIKIPVCIKVIEDK): -64.6%; Inhibition [18]: 0.6%; Inhibition [19]: -2.3%; Inhibition ([20]; Lys1, LTGEVVALKK): 14.1%; Inhibition ([20]; Lys2, DLKPQNLLINTEGAIK): 9.6%; Inhibition ([21]; EHPFLVKGGEDLR): 29.9%; Inhibition ([21]; KGGSWIQEINVAEK): 7.8%; Inhibition [22]: -2.3%; Inhibition [23]: -40.8%; Inhibition [24]: -20.8%; Inhibition [25, 31]: -14.9%; Inhibition ([25]; Lys1, KVTRPDSGHLYAMKVLK): -11.7%; Inhibition [26]: -26.0%; half-life [27]: 49 min |
